From ChEMBL document CHEMBL4806969, “Modulators of mas-related g-protein receptor x4 and related products and methods” (2020)
Calls of active or inactive are those of the source. No cut-off for these calls is given here.

Tests used:
[1] = Half life in C57BL/6 mouse at 50 mg/kg, po measured upto 24 hrs by LC-MS/MS analysis; format: ADME, organism-based; details: in vivo
[2] = AUC in C57BL/6 mouse at 50 mg/kg, po measured upto 24 hrs by LC-MS/MS analysis; format: ADME, organism-based; design: route oral, dose 50 mg/kg, time <=24; details: in vivo
[3] = biological target: T1, Mas-related G-protein coupled receptor member X4 (Homo sapiens, UniProt Q96LA9); assay: Antagonist activity at human MRGPRX4 expressed in HEK cells incubated in dark for 1 hr at 37 degree C and then incubated for 30 mins at room temperature in presence of 20 uM of deoxycholic acid by HTRF assay; format: functional, cell-based
T1 sequence (Q96LA9 whole entry): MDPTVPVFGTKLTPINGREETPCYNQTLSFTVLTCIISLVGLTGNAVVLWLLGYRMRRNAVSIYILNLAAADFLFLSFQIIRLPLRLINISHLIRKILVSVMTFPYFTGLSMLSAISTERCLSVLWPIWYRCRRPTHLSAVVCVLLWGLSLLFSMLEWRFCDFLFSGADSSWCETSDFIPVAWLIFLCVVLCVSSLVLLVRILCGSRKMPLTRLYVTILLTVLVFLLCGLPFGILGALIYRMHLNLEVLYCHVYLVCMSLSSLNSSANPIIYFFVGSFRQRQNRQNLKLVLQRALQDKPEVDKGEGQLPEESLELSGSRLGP

[4] = biological target: T1, Mas-related G-protein coupled receptor member X4; assay: Antagonist activity at human MRGPRX4 expressed in HEK cells incubated in dark for 1 hr at 37 degree C and then incubated for 30 mins at room temperature in presence of […] bilirubin by HTRF assay; format: functional, cell-based
[5] = Cmax in C57BL/6 mouse at 50 mg/kg, po measured upto 24 hrs by LC-MS/MS analysis; format: ADME, organism-based; design: route oral, dose 50 mg/kg, time <=24; details: in vivo
[6] = biological target: T1, Mas-related G-protein coupled receptor member X4; assay: Antagonist activity at human MRGPRX4 expressed in HEK cells incubated in dark for 1 hr at 37 degree C and then incubated for 30 mins at room temperature in presence of 50 uM of obeticholic acid by HTRF assay; format: functional, cell-based
[7] = biological target: T1, Mas-related G-protein coupled receptor member X4; assay: Antagonist activity at human MRGPRX4 expressed in HEK cells incubated in dark for 1 hr at 37 degree C and then incubated for 30 mins at room temperature in presence of 100 uM of conjugated bilirubin by HTRF assay; format: functional, cell-based
[8] = biological target: T1, Mas-related G-protein coupled receptor member X4; assay: Antagonist activity at human MRGPRX4 expressed in HEK cells incubated in dark for 1 hr at 37 degree C and then incubated for 30 mins at room temperature in presence of 10 uM of bilirubin by HTRF assay; format: functional, cell-based
[9] = biological target: T1, Mas-related G-protein coupled receptor member X4; assay: Agonist activity at human MRGPRX4 expressed in HEK cells using preincubated compound in dark freezer condition for 24 hrs by HTRF assay; format: functional, cell-based; details: filed as agonist
[10] = biological target: T1, Mas-related G-protein coupled receptor member X4; assay: Agonist activity at human MRGPRX4 expressed in HEK cells using preincubated compound in dark at room temperature for 24 hrs by HTRF assay; format: functional, cell-based
[11] = Stability of compound assessed as parent compound remaining after stored for 24 hrs in dark at room temperature by LC-MS/MS analysis; format: physicochemical
[12] = Stability of compound assessed as parent compound remaining after stored for 24 hrs in normal lab light condition at room temperature by LC-MS/MS analysis; format: physicochemical
[13] = Stability of compound assessed as parent compound remaining after stored for 24 hrs in blue light condition at room temperature by LC-MS/MS analysis; format: physicochemical
[14] = biological target: T1, Mas-related G-protein coupled receptor member X4; assay: Agonist activity at human MRGPRX4 expressed in HEK cells using preincubated compound in light at room temperature for 24 hrs by HTRF assay; format: functional, cell-based
[15] = biological target: T1, Mas-related G-protein coupled receptor member X4; assay: Agonist activity at human MRGPRX4 expressed in HEK cells using preincubated compound in blue light at room temperature for 24 hrs by HTRF assay; format: functional, cell-based
[16] = Stability of compound assessed as parent compound remaining after stored for 24 hrs in dark freezer condition by LC-MS/MS analysis; format: physicochemical; details: read-out: Stabilty
[17] = biological target: T1, Mas-related G-protein coupled receptor member X4; assay: Antagonist activity at human MRGPRX4 expressed in HEK cells incubated in dark for 1 hr at 37 degree C and then incubated for 30 mins at room temperature in presence of 50 uM of urobilin by HTRF assay; format: functional, cell-based

Row | SMILES | half-life [1] [h] | AUC at 24 h [2] [µM·h] | IC50 [3] [nM] | IC50 [4] [nM] | IC50 [6] [nM] | further results
1 | O=C(O)c1cccc(COc2ccc(Cl)c(Cl)c2Cl)c1 | 4 | 219 | 24 | < 100 |  | 
2 | Cc1cc(C(F)(F)F)ccc1OCc1cccc(C(=O)O)c1F | 4.8 | 1200 | 75 | < 100 | 22 | Cmax [5]: 230 µM; IC50 [7]: 12 nM; IC50 [8]: 17 nM
3 | CCc1cc(COc2ccc(C(F)(F)F)cc2Cl)nc(C(=O)O)c1 | 5.4 | 4700 | 16 | < 100 |  | 
4 | O=C(O)c1cccc(COc2ccc(Cl)cc2C(F)(F)F)n1 |  |  |  | < 100 | 5 | 
5 | O=C(O)c1cccc(COc2ccc(C(F)(F)F)cc2Cl)c1 | 4.6 | 615 | 46 | < 100 |  | 
6 | C=CC1=C(C)/C(=C/c2[nH]c(Cc3[nH]c(/C=C4\NC(=O)C(C)=C4C=C)c(C)c3CCC(=O)O)c(CCC(=O)O)c2C)NC1=O [BILIRUBIN] |  |  |  |  |  | Activity [9]: Active; Activity [10]: inactive; Stabilty [11]: Unstable; Stabilty [12]: Unstable; Stabilty [13]: Unstable; Activity [14]: inactive; Activity [15]: inactive; remaining at 24 h [16]: 44%
7 | O=C(O)c1cccc(COc2ccc(Cl)cc2Cl)c1 | 4.2 | 376 | 130 | < 100 |  | 
8 | N#Cc1cc(COc2ccc(Cl)cc2Cl)cc(C(=O)O)c1 |  |  |  | < 100 | 6 | 
9 | Clc1ccc(OCc2cccc(-c3nnn[nH]3)c2)c(Cl)c1Cl |  |  |  | < 100 |  | IC50 [17]: 6 nM
